From patent publication US20040110802A1, “Antibacterial benzoic acid derivatives” (priority 2002, published 2004)
In brackets after ≈: the same amount, converted by molar mass.

System: SAUR 9218
Assay: MIC Test Method, standard agar dilution
Assay type: cell-based
Conditions: agar dilution, Mueller Hinton agar, incubated overnight at 35° C.; lowest concentration that inhibits visible growth; read-out: SAUR 9218 MIC
Outline: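 Agar dilution in Mueller Hinton agar with serial 2-fold compound dilutions. Staphylococcus aureus strain 9218 spotted at approximately 10^4 to 10^5 cells per spot, incubated overnight at 35 °C; MIC (μg/ml) is the lowest concentration preventing visible growth.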

| Structure (SMILES) | MIC [µg/mL] |
| --- | --- |
| CC(Sc1ccc(C(=O)Nc2ccc(C#N)cc2C(=O)O)cn1)c1ccccc1 (centres unmarked) | 0.25 (≈ 0.62 µM) |
| Cc1c(S(=O)(=O)N2CCN(c3cccc(C(F)(F)F)c3)CC2)csc1C(=O)Nc1ccc(Br)cc1C(=O)O | 16 (≈ 25.3 µM) |
| O=C(Nc1ccc(Br)cc1C(=O)O)c1ccoc1 | > 128 |
| CC1(C)OCC(CCc2nc(C(=O)Nc3ccc(Br)cc3C(=O)O)co2)O1 (centres unmarked) | > 128 |
| N#Cc1ccc(NC(=O)c2cccc(Br)n2)c(C(=O)O)c1 | 32 (≈ 92.4 µM) |
| Cn1c(C(=O)Nc2ccc(C#N)cc2C(=O)O)cc2cccc(S(=O)(=O)c3ccccc3)c21 | 0.125 (≈ 0.272 µM) |
| C[C@@H]1CCCC1Oc1ccccc1-c1cc(C(=O)Nc2ccc(C#N)cc2C(=O)O)no1 (some centres unmarked) | 0.125 (≈ 0.29 µM) |
| N#Cc1ccc(NC(=O)c2ccc(S(=O)(=O)Cc3ccccc3)nc2)c(C(=O)O)c1 | 64 (≈ 152 µM) |
| N#Cc1ccc(NC(=O)c2cncc(-c3ccccc3C(F)(F)F)c2)c(C(=O)O)c1 | 2 (≈ 4.86 µM) |
| O=C(O)c1cc(Cl)ccc1NC(=O)c1cc2ccccc2n1Cc1ccccc1 | 4 (≈ 9.88 µM) |
| Cn1c(C(=O)Nc2ccc(C#N)cc2C(=O)O)cc2ccc(N(S(=O)(=O)c3cccs3)S(=O)(=O)c3cccs3)cc21 | 0.06 (≈ 0.0957 µM) |
| N#Cc1ccc(NC(=O)c2cc(CSc3ccncc3)on2)c(C(=O)O)c1 | 1 (≈ 2.63 µM) |
| N#Cc1ccc(NC(=O)c2cc3cccc(NC(=O)C(Cl)c4ccccc4)c3[nH]2)c(C(=O)O)c1 (centres unmarked) | 0.125 (≈ 0.264 µM) |
| N#Cc1ccc(NC(=O)c2cc3cccc(NC(=O)COCc4ccccc4)c3[nH]2)c(C(=O)O)c1 | 1 (≈ 2.13 µM) |
| CC(C)NC(=O)Nc1ccc2cc(C(=O)Nc3ccc(C#N)cc3C(=O)O)n(C)c2c1 | 0.5 (≈ 1.19 µM) |
| CCSc1ccc(C(=O)Nc2ccc(C#N)cc2C(=O)O)cn1.Cl | 0.5 |
| N#Cc1ccc(NC(=O)c2noc3ccc(-c4ccccc4C(F)(F)F)cc23)c(C(=O)O)c1 | 0.125 (≈ 0.277 µM) |
| CN(C)c1ccc2onc(C(=O)Nc3ccc(C#N)cc3C(=O)O)c2c1 | 0.25 (≈ 0.714 µM) |
| Cn1cccc1-c1cncc(C(=O)Nc2ccc(C#N)cc2C(=O)O)c1 | 8 (≈ 23.1 µM) |
| O=C(O)c1cc(Br)ccc1NC(=O)c1noc2cc(Cl)ccc12 | 1 (≈ 2.53 µM) |
| CS(=O)(=O)c1ccc(-c2ccc3onc(C(=O)Nc4ccc(C#N)cc4C(=O)O)c3c2)cc1 | 0.5 (≈ 1.08 µM) |
| CC(=O)Nc1cccc(-c2ccc3c(C(=O)Nc4ccc(C#N)cc4C(=O)O)noc3c2)c1 | 0.015 (≈ 0.0341 µM) |

| Structure (SMILES) | MIC [µg/mL] |
| --- | --- |
| O=C(Nc1ccc(Br)cc1C(=O)O)c1cc(-c2ccc(C(F)(F)F)cc2)on1 | 1 (≈ 2.2 µM) |
| Cn1c(C(=O)Nc2ccc(C#N)cc2C(=O)O)cc2cccc(NC(=O)NCC3CCCO3)c21 (centres unmarked) | 1 (≈ 2.17 µM) |
| CC(C)OCC(O)COc1cccc2cc(C(=O)Nc3ccc(C#N)cc3C(=O)O)n(C)c12 (centres unmarked) | 0.25 (≈ 0.554 µM) |
| CCCCCSc1nnc(C(=O)Nc2ccc(Br)cc2C(=O)O)o1 | 0.25 (≈ 0.603 µM) |
| COc1cccc(-c2cnc(C(=O)Nc3ccc(C#N)cc3C(=O)O)o2)c1 | 0.5 (≈ 1.38 µM) |
| N#Cc1ccc(NC(=O)c2cc3cccc(NC(=O)c4ccc(Br)cc4)c3[nH]2)c(C(=O)O)c1 | 0.25 (≈ 0.497 µM) |
| COCCOCCCSc1ccc(C(=O)Nc2ccc(C#N)cc2C(=O)O)cn1 | 1 (≈ 2.41 µM) |
| O=C(Nc1ccc(Br)cc1C(=O)O)c1cc(-c2ccccc2C(F)(F)F)on1 | 0.5 (≈ 1.1 µM) |
| CCC(CC)C(=O)Nc1cccc2cc(C(=O)Nc3ccc(C#N)cc3C(=O)O)[nH]c12 | 1 (≈ 2.39 µM) |
| N#Cc1ccc(NC(=O)c2cc(-c3ccccc3Oc3ccccc3)on2)c(C(=O)O)c1 | 0.03 (≈ 0.0705 µM) |
| N#Cc1ccc(NC(=O)c2noc3ccc(-c4ccccc4F)cc23)c(C(=O)O)c1 | 0.125 (≈ 0.311 µM) |
| N#Cc1ccc(NC(=O)c2cc(SCc3ccccc3)on2)c(C(=O)O)c1 | 0.125 (≈ 0.329 µM) |
| CCN(CC)S(=O)(=O)c1ccc2onc(C(=O)Nc3ccc(Br)cc3C(=O)O)c2c1 | 0.25 (≈ 0.504 µM) |
| N#Cc1ccc(NC(=O)c2cc3cccc4c3n2CCC4Oc2ccccc2)c(C(=O)O)c1 (centres unmarked) | 0.25 (≈ 0.571 µM) |
| Cc1noc(C)c1C#Cc1cncc(C(=O)Nc2ccc(C#N)cc2C(=O)O)c1 | 16 (≈ 41.4 µM) |
| Cc1ncsc1CCOc1ccccc1-c1cc(C(=O)Nc2ccc(C#N)cc2C(=O)O)no1 | 128 (≈ 270 µM) |
| N#Cc1ccc(NC(=O)c2nc3ccccc3o2)c(C(=O)O)c1 | 1 (≈ 3.25 µM) |
| CCO/N=C1\CCn2c(C(=O)Nc3ccc(C#N)cc3C(=O)O)cc3cccc1c32 | 1 (≈ 2.49 µM) |
| CC(=O)OCC(=O)Nc1ccc2cc(C(=O)Nc3ccc(C#N)cc3C(=O)O)n(C)c2c1 | 1 (≈ 2.3 µM) |
| Cc1ccsc1C(=O)Nc1ccc(Br)cc1C(=O)O | > 128 |
| O=C(Nc1ccc(Br)cc1C(=O)O)c1ccc2c(c1)C(=O)N(CC1CCCO1)C2=O (centres unmarked) | 8 (≈ 16.9 µM) |
| N#Cc1ccc(NC(=O)c2ccoc2)c(C(=O)O)c1 | > 128 |

| Structure (SMILES) | MIC [µg/mL] |
| --- | --- |
| CCCCCSc1ccc(C(=O)Nc2ccc(C#N)cc2C(=O)O)cn1 | 0.125 (≈ 0.338 µM) |
| N#Cc1ccc(NC(=O)c2nsc(-c3ccccc3)c2Cl)c(C(=O)O)c1 | 0.5 (≈ 1.3 µM) |
| Cc1sc(C(=O)Nc2ccc(Br)cc2C(=O)O)cc1S(=O)(=O)NC1Cc2ccccc2C1 | 8 (≈ 14.9 µM) |
| Cc1nc(C)c(S(=O)(=O)Nc2cccc3cc(C(=O)Nc4ccc(C#N)cc4C(=O)O)n(C)c23)s1 | 0.5 (≈ 0.981 µM) |
| Cc1sc(C(=O)Nc2ccc(C#N)cc2C(=O)O)cc1S(=O)(=O)N(C)C1CCCCC1 | 8 (≈ 17.3 µM) |
| Cc1sc(C(=O)Nc2ccc(C#N)cc2C(=O)O)cc1S(=O)(=O)N1CCC(C#N)(c2ccccc2)CC1 | 8 (≈ 15 µM) |
| Cc1c(S(=O)(=O)NCCCn2ccnc2)csc1C(=O)Nc1ccc(Br)cc1C(=O)O | > 128 |
| N#Cc1ccc(NC(=O)c2noc3ccc(S(=O)(=O)N4CCc5cc(Cl)ccc54)cc23)c(C(=O)O)c1 | 0.03 (≈ 0.0574 µM) |
| CCCCC(=O)Nc1cccc2cc(C(=O)Nc3ccc(C#N)cc3C(=O)O)[nH]c12 | 0.5 (≈ 1.24 µM) |
| N#Cc1ccc(NC(=O)c2ccc(SCCCCCO)nn2)c(C(=O)O)c1 | 0.06 (≈ 0.155 µM) |
| N#Cc1ccc(NC(=O)c2cc(-c3ccccc3O)on2)c(C(=O)O)c1 | 0.125 (≈ 0.358 µM) |
| CN(c1ccc(Cl)cc1)S(=O)(=O)c1ccc(C(=O)Nc2ccc(Br)cc2C(=O)O)s1 | 2 (≈ 3.77 µM) |
| CCCC(=O)Nc1ccc2cc(C(=O)Nc3ccc(C#N)cc3C(=O)O)n(C)c2c1 | 1 (≈ 2.47 µM) |
| CS(=O)(=O)Nc1ccc2onc(C(=O)Nc3ccc(C#N)cc3C(=O)O)c2c1 | 0.5 (≈ 1.25 µM) |
| CCOC(=O)CCSc1ccc(C(=O)Nc2ccc(C#N)cc2C(=O)O)cn1 | 1 (≈ 2.5 µM) |
| Cc1sc(C(=O)Nc2ccc(C#N)cc2C(=O)O)cc1S(=O)(=O)N1CCC(O)CC1 | 16 (≈ 35.6 µM) |
| O=C(Nc1ccc(O)cc1C(=O)O)c1cc(-c2ccccc2-c2ccccc2)on1 | 0.125 (≈ 0.312 µM) |
| Cn1c(C(=O)Nc2ccc(C#N)cc2C(=O)O)cc2cccc(OCC3COc4ccccc4O3)c21 (centres unmarked) | 0.125 (≈ 0.259 µM) |
| O=C(Nc1ccc(Br)cc1C(=O)O)c1cc2ccccc2o1 | 8 (≈ 22.2 µM) |
| N#Cc1ccc(NC(=O)c2cc(CNC(=N)N)on2)c(C(=O)O)c1 | 128 (≈ 390 µM) |
| Cc1sc(C(=O)Nc2ccc(C#N)cc2C(=O)O)cc1S(=O)(=O)N1CCN(c2ccccn2)CC1 | 32 (≈ 62.6 µM) |
| CC12CCC(C(=O)Nc3cccc4cc(C(=O)Nc5ccc(C#N)cc5C(=O)O)[nH]c34)(OC1=O)C2(C)C (centres unmarked) | 8 (≈ 16 µM) |

| Structure (SMILES) | MIC [µg/mL] |
| --- | --- |
| Cc1sc(C(=O)Nc2ccc(C#N)cc2C(=O)O)cc1S(=O)(=O)N1CCCC(C)C1 (centres unmarked) | 2 (≈ 4.47 µM) |
| O=C(Nc1ccc(Br)cc1C(=O)O)c1cc(OCc2ccccc2)ccn1 | 4 (≈ 9.36 µM) |
| N#Cc1ccc(NC(=O)c2onc3ccccc23)c(C(=O)O)c1 | 1 (≈ 3.25 µM) |
| COC(Cc1cnc(C(=O)Nc2ccc(Br)cc2C(=O)O)cn1)[C@H](O)CO (some centres unmarked) | > 128 |
| O=C(COc1ccccc1-c1cc(C(=O)Nc2ccc(O)cc2C(=O)O)no1)c1ccccc1 | 0.5 (≈ 1.09 µM) |
| O=C(O)c1cc(Br)ccc1NC(=O)c1cc2ccccc2n1CC1CCCCC1 | 4 (≈ 8.78 µM) |
| N#Cc1ccc(NC(=O)c2cc(-c3ccccc3OC3CCOCC3)on2)c(C(=O)O)c1 | 0.25 (≈ 0.577 µM) |
| C#CCCOCC(O)COc1cccc2cc(C(=O)Nc3ccc(C#N)cc3C(=O)O)n(C)c12 (centres unmarked) | 0.5 (≈ 1.08 µM) |
| Cc1sc(C(=O)Nc2ccc(C#N)cc2C(=O)O)cc1S(=O)(=O)N1CC(C)CC(C)C1 (centres unmarked) | 16 (≈ 34.7 µM) |
| O=C(O)c1cc(Br)ccc1NC(=O)c1noc2ccc(S(=O)(=O)N3CCOCC3)cc12 | 0.5 (≈ 0.98 µM) |
| N#Cc1ccc(NC(=O)c2cc3cccc(NC(=O)Cc4cccc(C(F)(F)F)c4)c3[nH]2)c(C(=O)O)c1 | 0.25 (≈ 0.494 µM) |
| CN(CC(O)C(O)C(O)C(O)CO)C(=O)Nc1cccc2cc(C(=O)Nc3ccc(C#N)cc3C(=O)O)n(C)c12 (centres unmarked) | 32 (≈ 57.6 µM) |
| N#Cc1ccc(NC(=O)c2cc(CN3CCOCC3)on2)c(C(=O)O)c1 | 16 (≈ 44.9 µM) |
| CCCCCCSc1ccc(C(=O)Nc2ccc(C#N)cc2C(=O)O)nc1 | 0.125 (≈ 0.326 µM) |
| CC(C)Sc1ccc(C(=O)Nc2ccc(Br)cc2C(=O)O)cn1 | 1 (≈ 2.53 µM) |
| COc1cccc2cc(C(=O)Nc3ccc(Br)cc3C(=O)O)oc12 | 32 (≈ 82 µM) |
| N#Cc1ccc(NC(=O)c2cc3cccc(NC(=O)C45CC6CC(CC(C6)C4)C5)c3[nH]2)c(C(=O)O)c1 | 16 (≈ 33.2 µM) |
| O=C(Nc1ccc(Br)cc1C(=O)O)c1cc(CCCc2ccccc2)on1 | 0.25 (≈ 0.582 µM) |
| N#Cc1ccc(NC(=O)c2nsc(Cl)c2Cl)c(C(=O)O)c1 | 4 (≈ 11.7 µM) |
| CS(=O)(=O)Nc1ccc(-c2cc3onc(C(=O)Nc4ccc(C#N)cc4C(=O)O)c3cc2NS(C)(=O)=O)c(C(F)(F)F)c1 | 0.125 (≈ 0.196 µM) |
